From patent US12065443B2, “Compounds and pharmaceutical compositions thereof for the treatment of diseases” (priority 2017, dated 2024)

What was measured:
SIK1 = target: T1, SIK1 (Homo sapiens, UniProt P57059); assay: biochemical; settings: 33P radioactive SIK kinase assay, AMARA peptide, 10 μM ATP; read-out: SIK1 IC50
T1 construct: purchased Carna Biosciences 02-131
Summary of the method: (§1)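 Read-out: ^33P incorporated into AMARA peptide, counted on filter plates, taken as kinase activity. Reactions start on addition of labeled/unlabeled ATP to enzyme plus substrate and end with phosphoric acid. Controls: 1% DMSO (negative) and 10 μM staurosporine (positive), final.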

SIK2 = target: T2, SIK2 (Homo sapiens, UniProt Q9H0K1); assay: biochemical; settings: 33P radioactive SIK kinase assay, AMARA peptide, 10 μM ATP
T2 construct: purchased ThermoFisher Scientific PV4792
T2 sequence (Q9H0K1 whole entry): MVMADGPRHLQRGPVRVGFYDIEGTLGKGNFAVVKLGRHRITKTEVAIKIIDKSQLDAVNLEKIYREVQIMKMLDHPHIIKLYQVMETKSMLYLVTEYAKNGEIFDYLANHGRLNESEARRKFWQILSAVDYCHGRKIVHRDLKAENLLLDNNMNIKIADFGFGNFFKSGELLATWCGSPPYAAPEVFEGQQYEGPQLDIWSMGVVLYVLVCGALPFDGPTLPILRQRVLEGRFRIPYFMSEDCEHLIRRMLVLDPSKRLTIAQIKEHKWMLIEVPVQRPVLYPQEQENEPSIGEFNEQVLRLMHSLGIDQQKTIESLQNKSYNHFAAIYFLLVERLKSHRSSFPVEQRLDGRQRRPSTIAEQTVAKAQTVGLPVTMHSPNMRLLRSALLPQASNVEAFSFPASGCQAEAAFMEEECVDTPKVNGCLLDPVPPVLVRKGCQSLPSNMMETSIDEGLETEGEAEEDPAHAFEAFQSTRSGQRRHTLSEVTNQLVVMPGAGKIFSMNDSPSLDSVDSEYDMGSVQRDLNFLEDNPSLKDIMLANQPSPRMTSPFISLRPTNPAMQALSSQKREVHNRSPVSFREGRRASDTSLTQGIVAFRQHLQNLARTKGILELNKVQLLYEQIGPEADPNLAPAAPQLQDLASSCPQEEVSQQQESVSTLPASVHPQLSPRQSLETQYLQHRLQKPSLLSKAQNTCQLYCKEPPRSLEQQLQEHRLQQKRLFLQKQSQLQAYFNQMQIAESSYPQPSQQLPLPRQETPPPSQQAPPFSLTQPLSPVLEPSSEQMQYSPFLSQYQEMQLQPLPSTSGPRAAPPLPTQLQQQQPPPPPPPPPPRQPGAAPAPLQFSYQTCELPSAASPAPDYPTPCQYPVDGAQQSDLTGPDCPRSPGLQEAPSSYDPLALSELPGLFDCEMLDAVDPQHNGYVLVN
Summary of the method: as §1

SIK3 = target: T3, SIK3 (Homo sapiens, UniProt Q9Y2K2); assay: biochemical
T3 construct: purchased SignalChem S12-11G-100
T3 sequence (Q9Y2K2 whole entry): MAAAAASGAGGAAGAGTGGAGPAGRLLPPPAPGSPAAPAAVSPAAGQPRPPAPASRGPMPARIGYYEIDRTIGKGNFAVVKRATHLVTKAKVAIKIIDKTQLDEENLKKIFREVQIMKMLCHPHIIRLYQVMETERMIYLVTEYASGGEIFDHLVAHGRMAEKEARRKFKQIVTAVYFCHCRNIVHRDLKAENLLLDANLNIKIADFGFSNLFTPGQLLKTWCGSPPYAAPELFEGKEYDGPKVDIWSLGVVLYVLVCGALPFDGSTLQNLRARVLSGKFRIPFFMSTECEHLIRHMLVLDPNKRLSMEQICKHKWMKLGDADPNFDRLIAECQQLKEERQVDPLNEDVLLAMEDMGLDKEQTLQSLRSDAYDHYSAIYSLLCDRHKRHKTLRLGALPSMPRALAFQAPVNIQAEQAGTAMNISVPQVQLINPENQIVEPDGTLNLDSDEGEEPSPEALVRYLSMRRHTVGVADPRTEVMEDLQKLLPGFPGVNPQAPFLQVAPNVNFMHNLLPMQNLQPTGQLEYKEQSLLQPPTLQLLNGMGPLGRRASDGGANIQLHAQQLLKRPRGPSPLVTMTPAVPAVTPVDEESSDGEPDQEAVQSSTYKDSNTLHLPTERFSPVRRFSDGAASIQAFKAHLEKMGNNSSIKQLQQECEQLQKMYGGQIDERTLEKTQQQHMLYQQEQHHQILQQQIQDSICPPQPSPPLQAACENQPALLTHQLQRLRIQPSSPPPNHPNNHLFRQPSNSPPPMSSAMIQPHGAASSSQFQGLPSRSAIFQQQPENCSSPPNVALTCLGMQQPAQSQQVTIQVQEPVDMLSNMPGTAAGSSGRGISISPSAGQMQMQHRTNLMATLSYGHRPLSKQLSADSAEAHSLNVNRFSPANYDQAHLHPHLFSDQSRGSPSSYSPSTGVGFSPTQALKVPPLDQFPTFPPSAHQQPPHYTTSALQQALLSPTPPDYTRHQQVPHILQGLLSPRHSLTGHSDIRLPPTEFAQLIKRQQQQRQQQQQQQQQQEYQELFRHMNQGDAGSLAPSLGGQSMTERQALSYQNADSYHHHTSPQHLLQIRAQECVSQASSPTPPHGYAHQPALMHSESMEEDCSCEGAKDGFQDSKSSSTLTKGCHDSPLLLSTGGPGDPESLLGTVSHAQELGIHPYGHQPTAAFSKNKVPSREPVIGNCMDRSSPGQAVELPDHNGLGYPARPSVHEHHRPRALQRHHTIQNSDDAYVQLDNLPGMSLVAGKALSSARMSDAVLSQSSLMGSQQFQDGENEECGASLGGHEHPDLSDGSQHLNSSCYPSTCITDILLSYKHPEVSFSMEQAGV
Summary of the method: as §1

[1] = test system: LPS-induced TNFα secretion in monocyte-derived macrophages (MdM); assay: MdM assay: LPS-triggered TNFα (ELISA); assay type: cell-based, human; settings: Homo sapiens, Macrophage, LPS-triggered TNFα inhibition
Method: This assay evaluates illustrative compounds of the invention for their inhibition of LPS-induced TNFα and LPS triggered IL-10 secretion in monocyte-derived macrophages.
PBMCs are isolated from human blood samples (buffycoats). The buffy coat is aseptically transferred into a 50 mL Falcon tube, and diluted 1/2 in PBS. Falcon tubes are filled with 20 mL Lymphoprep™, on top of which 25 mL of the buffy coat is carefully added, tubes are centrifuged for 35 min at 400 g in temperature controlled centrifuge, without brake, at 25° C. PBMCs are aspirated from the white interface layer between sample and Lymphoprep™. PBMCs are washed five times in PBS.
PBMCs are centrifuged at 300×g for 10 min and resuspended at a density of 1.0E07 cells/80 μL Miltenyi buffer (PBS, pH 7.4, 1% FBS, 2 mM EDTA).
Starting from this point of the protocol all steps are performed on ice. 20 μL of CD14+ micro-beads are added per 1.0E07 cells, the tube is mixed and incubated for 15 min in the fridge at 4° C. Cell suspension volume is adjusted to total volume of 100 mL using Miltenyi buffer, mixed gently and subsequently centrifuged for 10 min at 300× g. Supernantant is discarded and cell pellet is resuspended in 12 mL of Miltenyi buffer.
Four LS columns are placed in the MACS Separator (magnet) from Miltenyi Biotec, and are prewet by rinsing with 3 mL of MACS buffer per column. Three mL of cell suspension is added onto the column (max 1*10^8 of labelled cells/column), and columns are subsequently washed 3 times with 3 mL of Miltenyi buffer.
The columns are removed from the magnets, and 5 mL of Miltenyi buffer are added to the column to flush out the CD14+ fraction by pushing the plunger into the column. The flushed fractions are collected in a fresh 50 mL Falcon and volume is adjusted to 30 mL using Miltenyi buffer, cells are centrifuged for 10 min at 300× g. The obtained cell pellet is resuspended in 10 mL RPMI w/o FBS, and cell density is determined using a hematologic analyser (Sysmex XS-500i).
On day 10, MdMs are triggered and compound is added.
A compound dilution plate is made in 100% DMSO by 3-fold dilution of 10 mM stock solution. An intermediate dilution plate (10× final concentration) is made by diluting the compound dilution plate 50-fold in RPMI medium.
Medium is carefully removed from cell plates using multichannel pipette, and replaced by 80 μL fresh medium. 10 μL of the 10× final concentration compound is added to the cells and incubated for 1 hour at 37° C. before addition of trigger. No trigger conditions/trigger conditions are spiked with equal final DMSO concentrations of 0.2% DMSO. 10 μL of 10×LPS (final conc. 200 ng/mL) solution are added to all wells except for the ‘no trigger wells’ where 10 μL medium is added. Supernatant is collected after 2 h (IL-10 determination) and after 20 h (TNFα determination) of LPS triggering.
The plate is then washed once with PBST (PBS+0.05% Tween20) and once with PBS followed by the addition of 100 μL of blocking buffer (1% Bovine Serum Albumin (BSA)-5% Sucrose) and plates are sealed and incubated for at least 4 h at RT. After washing the plate once with PBST and once with PBS, 40 μL of standard or sample are added (TNFα standard curve is prepared using a 1/2 serial dilution starting from 16000 pg/mL; dilutions are made in dilution buffer (PBS+1% BSA)). Plates are washed twice with PBST, and once with PBS, after which 35 μL of the detection antibody is added (final concentration 0.25 μg/mL diluted in dilution buffer) and plates are incubated for at least 2 h at RT. Plates are washed twice with PBST, and once with PBS, where after 35 μL of Strep-HRP conjugate (0.5 μg/mL final concentration diluted in dilution buffer) is added. Plates are incubated in the dark, at RT for at least 45 min but no longer than 1 hour. Plates are washed twice with PBST, and once with PBS.

T1 sequence (P57059 whole entry): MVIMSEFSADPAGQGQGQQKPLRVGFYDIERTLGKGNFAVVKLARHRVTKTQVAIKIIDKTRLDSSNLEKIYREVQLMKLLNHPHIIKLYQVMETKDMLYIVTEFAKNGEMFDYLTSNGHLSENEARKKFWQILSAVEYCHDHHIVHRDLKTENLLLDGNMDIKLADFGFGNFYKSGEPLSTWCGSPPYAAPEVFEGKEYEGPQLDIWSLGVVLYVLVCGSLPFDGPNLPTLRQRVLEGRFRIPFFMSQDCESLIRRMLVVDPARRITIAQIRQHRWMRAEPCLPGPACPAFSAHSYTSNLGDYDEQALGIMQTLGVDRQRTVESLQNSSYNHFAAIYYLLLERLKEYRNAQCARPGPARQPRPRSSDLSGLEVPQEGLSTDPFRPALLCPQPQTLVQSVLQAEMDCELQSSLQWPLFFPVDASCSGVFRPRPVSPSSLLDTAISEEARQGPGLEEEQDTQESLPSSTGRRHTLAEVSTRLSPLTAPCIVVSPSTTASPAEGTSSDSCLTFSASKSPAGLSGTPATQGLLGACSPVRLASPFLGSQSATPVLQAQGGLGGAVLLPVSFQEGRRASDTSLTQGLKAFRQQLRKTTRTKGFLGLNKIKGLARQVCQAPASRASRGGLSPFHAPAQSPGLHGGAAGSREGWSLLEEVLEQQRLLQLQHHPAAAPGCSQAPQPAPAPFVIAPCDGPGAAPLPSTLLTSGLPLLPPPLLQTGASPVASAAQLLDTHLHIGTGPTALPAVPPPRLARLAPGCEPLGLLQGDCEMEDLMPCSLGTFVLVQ

Row | IC50 (SIK1) [nM] | IC50 (SIK2) [nM] | IC50 (SIK3) [nM] | EC50 [1] [nM] | Structure (SMILES)
1 | 0.01 to 10 | 0.01 to 10 | 0.01 to 10 | 1000 to 5000 | COc1cc(-n2cnc3cc(-c4cnn(C)c4)ccc32)cc(OC)c1C(=O)NC1CCCC[C@H]1N (stereo in doubt) [compound 139, N-[(1R,2R)-2-aminocyclohexyl]-2,6-dimethoxy-4-[5-(1-methylpyrazol-4-yl)benzimidazol-1-yl]benzamide]
2 | 100 to 500 | 100 to 500 | 100 to 500 |  | COc1cc(-n2cnc3cc(-c4cnn(C)c4)ccc32)cc(OC)c1C(=O)N1CC2(C1)CS(=O)(=O)C2 [compound 195, [2,6-dimethoxy-4-[5-(1-methylpyrazol-4-yl)benzimidazol-1-yl]phenyl]-(2,2-dioxo-2λ^6-thia-6-azaspiro[3.3]heptan-6-yl)methanone]
3 | > 500 | > 500 | > 500 |  | COc1cc(-n2cnc3cc(-c4cnn(C)c4)ccc32)cc(OC)c1C(=O)N1CCC(c2ccccc2)C1 (stereo not shown) [compound 196, [2,6-dimethoxy-4-[5-(1-methylpyrazol-4-yl)benzimidazol-1-yl]phenyl]-(3-phenylpyrrolidin-1-yl)methanone]
4 | > 500 | > 500 | > 500 |  | COc1cc(-n2cnc3cc(-c4cnn(C)c4)ccc32)cc(OC)c1C(=O)N1CCC(F)CC1 [compound 197, [2,6-dimetlioxy-4-[5-(1-methylpyrazol-4-yl)benzimidazol-1-yl]phenyl]-(4-fluoro-1-piperidyl)methanone]
5 | 100 to 500 | > 500 | 100 to 500 |  | COc1cc(-n2cnc3cc(-c4cnn(C)c4)ccc32)cc(OC)c1C(=O)N1CCC(OC(F)(F)F)CC1 [compound 198, [2,6-dimethoxy-4-[5-(1-methylpyrazol-4-yl)benzimidazol-1-yl]phenyl]-[4-(trifluoromethoxy)-1-piperidyl]methanone]
6 | > 500 | > 500 | > 500 |  | COc1cc(-n2cnc3cc(-c4cnn(C)c4)ccc32)cc(OC(F)F)c1C(=O)NC(C)(C)C [compound 199, N-tert-butyl-2-(difluoromethoxy)-6-methoxy-4-[5-(1-methylpyrazol-4-yl)benzimidazol-1-yl]benzamide]
7 | 10 to 100 | 10 to 100 | 10 to 100 |  | COc1cc(-c2cnc3cc(-c4cnn(C)c4)ccn23)cc(OC)c1C(=O)NC(C(C)C)C(F)(F)F (stereo not shown) [compound 200]
8 | 10 to 100 | 10 to 100 | 10 to 100 |  | COc1cc(-c2cnc3cc(-c4cnn(C)c4)ccn23)cc(OC)c1C(=O)N1CCC(F)(F)C1 [compound 211, (3,3-difluoropyrrolidin-1-yl)-[2,6-dimethoxy-4-[7-(1-methylpyrazol-4-yl)imidazo[1,2-a]pyridin-3-yl]phenyl]methanone]
9 | 100 to 500 | 10 to 100 | 100 to 500 |  | COc1cc(-c2cnc3cc(-c4cnn(C)c4)ccn23)cc(OC)c1C(=O)N1CCC(F)(F)CC1 [compound 212, (4,4-difluoro-1-piperidyl)-[2,6-dimethoxy-4-[7-(1-methylpyrazol-4-yl)imidazo[1,2-a]pyridin-3-yl]phenyl]methanone]
10 | 10 to 100 | 10 to 100 | 10 to 100 |  | COc1cc(-n2cnc3cc(-c4cnn(C)c4)ccc32)cc(OC)c1C(=O)N1CC(C)(O)C1 [compound 217, [2,6-dimethoxy-4-[5-(1-methylpyrazol-4-yl)benzimidazol-1-yl]phenyl]-(3-hydroxy-3-methyl-azetidin-1-yl)methanone]
11 | 10 to 100 | 10 to 100 | 100 to 500 |  | CCC1(O)CN(C(=O)c2c(OC)cc(-n3cnc4cc(-c5cnn(C)c5)ccc43)cc2OC)C1 [compound 218, [2,6-dimethoxy-4-[5-(1-methylpyrazol-4-yl)benzimidazol-1-yl]phenyl]-(3-ethyl-3-hydroxy-azetidin-1-yl)methanone]
12 | 10 to 100 | 10 to 100 | 10 to 100 |  | COc1cc(-n2cnc3cc(-c4cnn(C)c4)ccc32)cc(OC)c1C(=O)N1CC(O)(C2CC2)C1 [compound 220, (3-cyclopropyl-3-hydroxy-azetidin-1-yl)-[2,6-dimethoxy-4-[5-(1-methylpyrazol-4-yl)benzimidazol-1-yl]phenyl]methanone]
13 | 100 to 500 | 100 to 500 | 100 to 500 |  | COc1cc(-c2cnc3cc(-c4cc(C)no4)ccn23)cc(OC)c1C(=O)N[C@@H](C)C(F)(F)F [compound 224, 2,6-dimethoxy-4-[7-(3-methylisoxazol-5-yl)imidazo[1,2-a]pyridin-3-yl]-N-[(1S)-2,2,2-trifluoro-1-methyl-ethyl]benzamide]
14 | 10 to 100 | 10 to 100 | 10 to 100 |  | COC(=O)C1CN(C(=O)c2c(OC)cc(-c3cnc4cc(-c5cnn(C)c5)ccn34)cc2OC)C1 [compound 226, methyl 1-[2,6-dimethoxy-4-[7-(1-methylpyrazol-4-yl)imidazo[1,2-a]pyridin-3-yl]benzoyl)azetidine-3-carboxylate]
15 | 10 to 100 | 10 to 100 | 0.01 to 10 |  | COc1cncc(-c2ccn3c(-c4cc(OC)c(C(=O)NCC(F)(F)F)c(OC)c4)cnc3c2)c1 [compound 245, 2,6-dimethoxy-4-[7-(5-methoxy-3-pyridyl)imidazo[1,2-a]pyridin-3-yl]-N-(2,2,2-trifluoroethyl)benzamide]
16 | 10 to 100 | 10 to 100 | 0.01 to 10 |  | COc1cc(-c2cnc3cc(-c4cnc(N)nc4)ccn23)cc(OC)c1C(=O)NCC(F)(F)F [compound 246, 4-[7-(2-aminopyrimidin-5-yl)imidazo[1,2-a]pyridin-3-yl]-2,6-dimethoxy-N-(2,2,2-trifluoroethyl)benzamide]
17 | 10 to 100 | 10 to 100 | 0.01 to 10 |  | COc1cc(-c2cnc3cc(-c4ccnnc4)ccn23)cc(OC)c1C(=O)NCC(F)(F)F [compound 247, 2,6-dimethoxy-4-(7-pyridazin-4-ylimidazo[1,2-a]pyridin-3-yl)-N-(2,2,2-trifluoroethyl)benzamide]
18 | 100 to 500 | 10 to 100 | 10 to 100 |  | COc1cc(-c2cnc3cc(-c4cn(C)nc4C(F)(F)F)ccn23)cc(OC)c1C(=O)NCC(F)(F)F [compound 249, 2,6-dimethoxy-4-[7-[1-methyl-3-(trifluoromethyl)pyrazol-4-yl]imidazo[1,2-a]pyridin-3-yl]-N-(2,2,2-trifluoroethyl)benzamide]
19 | 100 to 500 | 10 to 100 | 10 to 100 |  | COc1cc(-c2cnc3cc(-c4cccnc4OC)ccn23)cc(OC)c1C(=O)NCC(F)(F)F [compound 250, 2,6-dimethoxy-4-[7-(2-methoxy-3-pyridyl)imidazo[1,2-a]pyridin-3-yl]-N-(2,2,2-trifluoroethyl)benzamide]
20 | > 500 | > 500 | 100 to 500 |  | COc1cc(-c2cnc3cc(-c4cncnc4C(C)C)ccn23)cc(OC)c1C(=O)NCC(F)(F)F [compound 253, 4-[7-(4-isopropylpyrimidin-5-yl)imidazo[1,2-a]pyridin-3-yl]-2,6-dimethoxy-N-(2,2,2-trifluoroethyl)benzamide]
